Results published in patent US20260083714A1, “DOSING REGIMEN FOR TREATING PKU WITH A PIPERIDINE INHIBITOR OF SLC6A19 FUNCTION” (Jnana Therapeutics Inc., priority 2022, published 2026).
Where two headings read alike, the source gives them in different places.

How the values were obtained:
[1] = Plasma levels of Compound 1 over 72 h, suspension versus tablet, fasted or fed, in healthy volunteers; assay type: in vivo; conditions: human, oral, 100 mg, read-out: Plasma level, Mean; for concentration at 0.5 h: 0.5 h post-dose; for concentration at 1 h: 1 h post-dose; for concentration at 1.5 h: 1.5 h post-dose; for concentration at 2 h: 2 h post-dose; for concentration at 2.5 h: 2.5 h post-dose; for concentration at 3 h: 3 h post-dose; for concentration at 4 h: 4 h post-dose; for concentration at 6 h: 6 h post-dose; for concentration at 8 h: 8 h post-dose; for concentration at 10 h: 10 h post-dose; for concentration at 12 h: 12 h post-dose; for concentration at 24 h: 24 h post-dose; for concentration at 36 h: 36 h post-dose; for concentration at 48 h: 48 h post-dose; for concentration at 72 h: 72 h post-dose; for concentration at 0 h: 0 h post-dose
Method: FIG. 4 is a graph of the pharmacokinetics of Compound 1 over 72 hours in healthy volunteers in fed or fasted states when administering 100 mg of the compound as a suspension formulation or a tablet.
A suspension formulation (100 mg, fasted) and tablet formulation (100 mg, fasted or fed) of Compound 1 was administered to healthy volunteers. Plasma levels of Compound 1 over 72 was measured (FIG. 4). Post-dose plasma levels are recited in Table 16.

SLC6A19 = molecular target: T1, SLC6A19 (Homo sapiens, UniProt Q695T7); experiment: Amino acid excretion over 24 h after a single dose of suspension in healthy volunteers; assay type: in vivo
T1 construct: SCL6A19 is located in the proximal tubule of the kidney and is responsible for reabsorption of amino acids back into the blood; from tissue; host or cells: Kidney proximal tubule of healthy volunteers (in vivo, endogenous)
T1 sequence (Q695T7 1-634): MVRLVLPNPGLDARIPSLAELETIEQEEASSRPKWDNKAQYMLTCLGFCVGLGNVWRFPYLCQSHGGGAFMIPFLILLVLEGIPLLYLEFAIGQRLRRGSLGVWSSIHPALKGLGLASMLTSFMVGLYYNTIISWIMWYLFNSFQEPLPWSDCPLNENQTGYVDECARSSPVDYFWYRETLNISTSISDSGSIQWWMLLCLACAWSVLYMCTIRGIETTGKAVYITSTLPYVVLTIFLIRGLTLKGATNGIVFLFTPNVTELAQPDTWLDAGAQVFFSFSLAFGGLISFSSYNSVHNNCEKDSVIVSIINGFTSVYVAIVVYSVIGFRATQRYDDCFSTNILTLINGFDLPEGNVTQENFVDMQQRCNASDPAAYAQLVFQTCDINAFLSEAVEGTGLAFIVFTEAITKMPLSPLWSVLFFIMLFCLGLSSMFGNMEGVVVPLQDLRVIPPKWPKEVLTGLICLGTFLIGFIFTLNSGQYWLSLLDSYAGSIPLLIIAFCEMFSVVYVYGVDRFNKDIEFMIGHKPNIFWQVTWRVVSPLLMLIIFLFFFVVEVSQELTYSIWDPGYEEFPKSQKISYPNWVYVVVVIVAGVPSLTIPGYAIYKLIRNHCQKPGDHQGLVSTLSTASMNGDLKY
T1 sequence (Q9HBJ8 15-222 partner): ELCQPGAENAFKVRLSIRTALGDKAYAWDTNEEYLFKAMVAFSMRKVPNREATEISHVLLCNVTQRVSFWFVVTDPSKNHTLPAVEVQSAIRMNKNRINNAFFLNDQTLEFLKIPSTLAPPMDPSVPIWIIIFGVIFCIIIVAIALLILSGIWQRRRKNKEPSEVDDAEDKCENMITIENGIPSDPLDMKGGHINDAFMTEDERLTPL
Method: FIG. 1 is a graph of the pharmacodynamic effect of Compound 1 in healthy volunteers showing changes in total phenylalanine or overall SLC6A19 amino acid substrates (Hartnup amino acids) excretion over 24 hours following administration of a single dose of the compound (10-170 mg) in the form of a suspension.
A suspension formulation of varying doses of Compound 1 (10-170 mg) was administered to healthy volunteers. Changes in amino acid excretion over 24 h following a single dose were measured (FIG. 1). Up to a 14-fold increase in total Phe excretion (from 10 mg to 142 mg) and a 16-fold increase in Hartnup AA excretion (from 0.29 g to 4.8 g) were observed over 24 hr after dosing (Tables 13A and 13B).

[2] = single dose suspension, highest value of 10-170 mg

- concentration at 0.5 h ([1]; 100 mg suspension, fasted): 1840 ng/mL
- concentration at 1 h ([1]; 100 mg suspension, fasted): 2310 ng/mL
- concentration at 1.5 h ([1]; 100 mg suspension, fasted): 2440 ng/mL
- concentration at 2 h ([1]; 100 mg suspension, fasted): 2630 ng/mL
- concentration at 2.5 h ([1]; 100 mg suspension, fasted): 2620 ng/mL
- concentration at 3 h ([1]; 100 mg suspension, fasted): 2720 ng/mL
- concentration at 4 h ([1]; 100 mg suspension, fasted): 2750 ng/mL
- concentration at 6 h ([1]; 100 mg suspension, fasted): 2090 ng/mL
- concentration at 8 h ([1]; 100 mg suspension, fasted): 1580 ng/mL
- concentration at 10 h ([1]; 100 mg suspension, fasted): 1110 ng/mL
- concentration at 12 h ([1]; 100 mg suspension, fasted): 778 ng/mL
- concentration at 24 h ([1]; 100 mg suspension, fasted): 216 ng/mL
- concentration at 36 h ([1]; 100 mg suspension, fasted): 50 ng/mL
- concentration at 48 h ([1]; 100 mg suspension, fasted): 24.2 ng/mL
- concentration at 72 h ([1]; 100 mg suspension, fasted): 12.8 ng/mL
- concentration at 0 h ([1]; 100 mg tablet, fasted): 12.1 ng/mL
- concentration at 0.5 h ([1]; 100 mg tablet, fasted): 1600 ng/mL
- concentration at 1 h ([1]; 100 mg tablet, fasted): 2110 ng/mL
- concentration at 1.5 h ([1]; 100 mg tablet, fasted): 2400 ng/mL
- concentration at 2 h ([1]; 100 mg tablet, fasted): 2550 ng/mL
- concentration at 2.5 h ([1]; 100 mg tablet, fasted): 2530 ng/mL
- concentration at 3 h ([1]; 100 mg tablet, fasted): 2580 ng/mL
- concentration at 4 h ([1]; 100 mg tablet, fasted): 2580 ng/mL
- concentration at 6 h ([1]; 100 mg tablet, fasted): 2070 ng/mL
- concentration at 8 h ([1]; 100 mg tablet, fasted): 1650 ng/mL
- concentration at 10 h ([1]; 100 mg tablet, fasted): 1250 ng/mL
- concentration at 12 h ([1]; 100 mg tablet, fasted): 891 ng/mL
- concentration at 24 h ([1]; 100 mg tablet, fasted): 324 ng/mL
- concentration at 36 h ([1]; 100 mg tablet, fasted): 59.5 ng/mL
- concentration at 48 h ([1]; 100 mg tablet, fasted): 29 ng/mL
- concentration at 72 h ([1]; 100 mg tablet, fasted): 11.4 ng/mL
- concentration at 0 h ([1]; 100 mg tablet, fed): 12.1 ng/mL
- concentration at 0.5 h ([1]; 100 mg tablet, fed): 1660 ng/mL
- concentration at 1 h ([1]; 100 mg tablet, fed): 2220 ng/mL
- concentration at 1.5 h ([1]; 100 mg tablet, fed): 2320 ng/mL
- concentration at 2 h ([1]; 100 mg tablet, fed): 2850 ng/mL
- concentration at 2.5 h ([1]; 100 mg tablet, fed): 2910 ng/mL
- concentration at 3 h ([1]; 100 mg tablet, fed): 2950 ng/mL
- concentration at 4 h ([1]; 100 mg tablet, fed): 2860 ng/mL
- concentration at 6 h ([1]; 100 mg tablet, fed): 2260 ng/mL
- concentration at 8 h ([1]; 100 mg tablet, fed): 1740 ng/mL
- concentration at 10 h ([1]; 100 mg tablet, fed): 1270 ng/mL
- concentration at 12 h ([1]; 100 mg tablet, fed): 963 ng/mL
- concentration at 24 h ([1]; 100 mg tablet, fed): 329 ng/mL
- concentration at 36 h ([1]; 100 mg tablet, fed): 90.1 ng/mL
- concentration at 48 h ([1]; 100 mg tablet, fed): 45 ng/mL
- concentration at 72 h ([1]; 100 mg tablet, fed): 15 ng/mL
- Excretion amounts over 24 h, Hartnup Amino Acids, Mean (SLC6A19; single dose 10 mg suspension): 712.45 mg
- Excretion amounts over 24 h, Phenylalanine, Mean (SLC6A19; single dose 10 mg suspension): 12.50 mg
- Excretion amounts over 24 h, Hartnup Amino Acids, Mean (SLC6A19; single dose 25 mg suspension): 1213.02 mg
- Excretion amounts over 24 h, Phenylalanine, Mean (SLC6A19; single dose 25 mg suspension): 21.02 mg
- Excretion amounts over 24 h, Hartnup Amino Acids, Mean (SLC6A19; single dose 50 mg suspension): 2560.22 mg
- Excretion amounts over 24 h, Phenylalanine, Mean (SLC6A19; single dose 50 mg suspension): 51.53 mg
- Excretion amounts over 24 h, Hartnup Amino Acids, Mean (SLC6A19; single dose 100 mg suspension): 3281.75 mg
- Excretion amounts over 24 h, Phenylalanine, Mean (SLC6A19; single dose 100 mg suspension): 77.84 mg
- Excretion amounts over 24 h, Hartnup Amino Acids, Mean (SLC6A19; single dose 170 mg suspension): 4823.71 mg
- Excretion amounts over 24 h, Phenylalanine, Mean (SLC6A19; single dose 170 mg suspension): 141.61 mg
- increase in total Phe excretion over 24 hr after dosing (SLC6A19; single dose 10-170 mg suspension, versus 10 mg baseline): ≤ 14 fold
- increase in Hartnup AA excretion over 24 hr after dosing (SLC6A19; single dose 10-170 mg suspension, versus 0.29 g baseline): ≤ 16 fold
- Hartnup AA excretion over 24 hr after dosing (SLC6A19; [2]): 4.8 g
- total Phe excretion over 24 hr after dosing (SLC6A19; [2]): 142 mg
Structure (SMILES): NC(=O)N1CCC[C@@H](N(C(=O)NCc2ccc(OC(F)(F)F)cc2F)C2CC2)C1 [Cpd 1, (R)-3-(1-cyclopropyl-3-(2-fluoro-4-(trifluoromethoxy)benzyl)ureido) piperidine-1-carboxamide]
